Key:
Assay in all cases: relative viability (nuclei count vs DMSO), 5 days (fraction); higher = more cells survive
[1] = compound: COc1cc(-c2nn([C@H]3CC[C@H](N4CCN(C(C)=O)CC4)CC3)c3ncnc(N)c23)ccc1NC(=O)c1cc2ccccc2n1C + C[C@]1(O)C[C@@H](c2nc(-c3ccc4ccc(-c5ccccc5)nc4c3)c3c(N)nccn32)C1 [Linsitinib] (partner 1 µM)
Method in brief: (§1)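 Nuclei were stained with Hoechst during a one-step fixation (final 0.05% Triton X-100, 1% formaldehyde, 1 ug/ml Hoechst) carried out 5 days after dosing, then counted on 4× images. The cells, lung cancer lines in 1536-well plates, had been dosed by pin tool the day after seeding with one drug alone or a fixed anchor-drug dose plus five library-drug doses (not always all listed) in √10 steps. Relative viability is the nuclei count in treated wells divided by that in vehicle wells, and each value is the median of duplicate plates.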

[2] = compound: CO[C@@H]1[C@H](N(C)C(=O)c2ccccc2)C[C@H]2O[C@]1(C)n1c3ccccc3c3c4c(c5c6ccccc6n2c5c31)C(=O)NC4 [Midostaurin] + CC(=O)c1c(C)c2cnc(Nc3ccc(N4CCNCC4)cn3)nc2n(C2CCCC2)c1=O [Palbociclib] (partner 0.5 µM)
Method in brief: as §1

[3] = compound: COc1cc(-c2nn([C@H]3CC[C@H](N4CCN(C(C)=O)CC4)CC3)c3ncnc(N)c23)ccc1NC(=O)c1cc2ccccc2n1C + CC(=O)Nc1cccc(-n2c(=O)n(C3CC3)c(=O)c3c(Nc4ccc(I)cc4F)n(C)c(=O)c(C)c32)c1 [Trametinib] (partner 0.02 µM)
Method in brief: as §1

[4] = compound: CO[C@@H]1[C@H](N(C)C(=O)c2ccccc2)C[C@H]2O[C@]1(C)n1c3ccccc3c3c4c(c5c6ccccc6n2c5c31)C(=O)NC4 [Midostaurin] + CCNC(=O)c1noc(-c2cc(C(C)C)c(O)cc2O)c1-c1ccc(CN2CCOCC2)cc1 [Luminespib] (partner 0.01 µM)
Method in brief: as §1

[5] = compound: COc1cc(-c2nn([C@H]3CC[C@H](N4CCN(C(C)=O)CC4)CC3)c3ncnc(N)c23)ccc1NC(=O)c1cc2ccccc2n1C + Nc1ncn([C@H]2C[C@H](O)[C@@H](CO)O2)c(=O)n1 [Decitabine] (partner 2 µM)
Method in brief: as §1

Row | Cell Line | relative viability ([1]; first compound 0.0128 µM) | relative viability ([1]; first compound 0.04048 µM) | relative viability ([1]; first compound 0.128 µM) | relative viability ([1]; first compound 1.28 µM) | relative viability ([2]; first compound 0.01 µM) | relative viability ([2]; first compound 0.03162 µM) | relative viability ([2]; first compound 0.1 µM) | relative viability ([2]; first compound 0.3162 µM) | relative viability ([3]; first compound 0.0128 µM) | relative viability ([3]; first compound 0.04048 µM) | relative viability ([3]; first compound 0.128 µM) | relative viability ([3]; first compound 1.28 µM) | relative viability ([4]; first compound 0.01 µM) | relative viability ([4]; first compound 0.03162 µM) | relative viability ([4]; first compound 0.1 µM) | relative viability ([4]; first compound 0.3162 µM) | relative viability ([5]; first compound 0.0128 µM) | relative viability ([5]; first compound 0.04048 µM) | relative viability ([5]; first compound 0.128 µM) | relative viability ([5]; first compound 1.28 µM)
1 | NCI-H1395 | 0.965 | 1.21 | 0.916 | 0.768 | 0.626 | 0.753 | 0.639 | 0.703 | 1.02 | 0.945 | 0.967 | 0.667 | 0.837 | 0.702 | 0.573 | 0.665 | 0.753 | 0.748 | 0.77 | 0.533
2 | NCI-H1437 | 0.987 | 1.08 | 0.986 | 0.523 | 0.353 | 0.326 | 0.34 | 0.367 | 0.527 | 0.609 | 0.492 | 0.33 | 1.02 | 1 | 1.03 | 1.1 | 0.576 | 0.6 | 0.558 | 0.599
3 | NCI-H1651 | 0.879 | 1.11 | 0.871 | 0.638 | 0.518 | 0.52 | 0.525 | 0.53 | 0.843 | 0.832 | 0.79 | 0.771 | 0.905 | 0.731 | 0.664 | 0.66 | 0.587 | 0.654 | 0.605 | 0.438
4 | NCI-H1666 | 0.804 | 0.816 | 0.733 | 0.771 | 0.634 | 0.669 | 0.661 | 0.657 | 0.899 | 0.835 | 0.819 | 0.918 | 0.966 | 0.927 | 0.897 | 0.864 | 0.71 | 0.673 | 0.758 | 0.66
5 | NCI-H1734 | 0.847 | 0.772 | 0.873 | 0.717 | 0.334 | 0.38 | 0.373 | 0.351 | 0.721 | 0.445 | 0.664 | 0.598 | 0.224 | 0.192 | 0.178 | 0.187 | 0.521 | 0.468 | 0.516 | 0.479
6 | NCI-H1755 | 1.12 | 0.966 | 0.92 | 0.939 | 0.482 | 0.433 | 0.429 | 0.383 | 0.907 | 0.651 | 0.769 | 0.745 | 0.418 | 0.47 | 0.247 | 0.443 | 0.768 | 0.738 | 0.699 | 0.611
7 | NCI-H1792 | 0.565 | 0.485 | 0.392 | 0.449 | 0.593 | 0.709 | 0.635 | 0.634 | 0.433 | 0.132 | 0.401 | 0.348 | 0.399 | 0.429 | 0.388 | 0.446 | 0.566 | 0.504 | 0.532 | 0.598
8 | NCI-H1793 | 0.99 | 0.979 | 0.712 | 0.545 | 0.305 | 0.349 | 0.354 | 0.342 | 0.446 | 0.24 | 0.469 | 0.359 | 0.281 | 0.307 | 0.169 | 0.168 | 0.55 | 0.468 | 0.509 | 0.364
9 | NCI-H1915 | 1.17 | 1.13 | 1.11 | 1.03 | 0.451 | 0.523 | 0.531 | 0.524 | 0.333 | 0.141 | 0.301 | 0.241 | 0.711 | 0.75 | 0.613 | 0.797 | 0.293 | 0.244 | 0.264 | 0.262
10 | NCI-H1944 | 1.18 | 1.16 | 1.06 | 0.839 | 0.36 | 0.402 | 0.318 | 0.35 | 0.455 | 0.274 | 0.393 | 0.295 | 0.764 | 0.872 | 0.67 | 0.773 | 0.483 | 0.371 | 0.456 | 0.451
11 | NCI-H1975 | 0.872 | 1.06 | 0.837 | 0.407 | 0.524 | 0.65 | 0.564 | 0.583 | 0.328 | 0.293 | 0.349 | 0.207 | 0.226 | 0.19 | 0.123 | 0.223 | 0.406 | 0.33 | 0.376 | 0.235
12 | NCI-H1993 | 0.91 | 0.691 | 0.698 | 0.611 | 0.495 | 0.802 | 0.794 | 0.656 | 0.504 | 0.489 | 0.562 | 0.481 | 0.807 | 0.821 | 0.866 | 0.856 | 0.632 | 0.575 | 0.681 | 0.617
13 | NCI-H2009 | 1.2 | 1.18 | 1.2 | 0.931 | 0.175 | 0.192 | 0.287 | 0.404 | 0.251 | 0.252 | 0.236 | 0.195 | 1.05 | 0.954 | 0.936 | 1 | 0.352 | 0.386 | 0.33 | 0.357
14 | NCI-H2023 | 0.7 | 0.641 | 0.624 | 0.531 | 0.482 | 0.428 | 0.341 | 0.192 | 0.402 | 0.445 | 0.585 | 0.454 | 0.627 | 0.753 | 0.589 | 0.333 | 0.219 | 0.219 | 0.218 | 0.228
15 | NCI-H2085 | 0.832 | 0.932 | 0.834 | 0.851 | 0.497 | 0.467 | 0.491 | 0.494 | 0.611 | 0.643 | 0.405 | 0.334 | 0.42 | 0.464 | 0.371 | 0.42 | 0.579 | 0.436 | 0.58 | 0.553
16 | NCI-H2087 | 1.1 | 0.875 | 1.12 | 1.11 | 0.213 | 0.232 | 0.268 | 0.27 | 0.209 | – | 0.207 | 0.17 | 0.258 | 0.18 | 0.154 | 0.169 | 0.331 | – | 0.198 | 0.225
17 | NCI-H2126 | 0.825 | 0.765 | 0.701 | 0.537 | 0.332 | 0.364 | 0.359 | 0.383 | 0.55 | 0.497 | 0.508 | 0.448 | 0.889 | 0.679 | 0.847 | 0.896 | 0.612 | 0.551 | 0.608 | 0.457
18 | NCI-H2347 | 0.949 | 0.856 | 0.961 | 1.09 | 0.442 | 0.449 | 0.395 | 0.404 | 0.292 | 0.236 | 0.263 | 0.225 | 0.422 | 0.727 | 0.366 | 0.325 | 0.618 | 0.612 | 0.57 | 0.639
19 | NCI-H2405 | 0.886 | 0.541 | 0.721 | 0.326 | 0.534 | 0.575 | 0.521 | 0.51 | 0.645 | 0.307 | 0.532 | 0.347 | 0.729 | 0.704 | 0.64 | 0.45 | 0.861 | 0.55 | 0.657 | 0.362
20 | NCI-H3122 | 1.1 | – | 1 | 0.875 | 0.156 | 0.241 | 0.197 | 0.229 | 0.209 | – | 0.165 | 0.162 | 0.093 | 0.104 | 0.0868 | 0.0981 | 0.44 | – | 0.447 | 0.318
21 | PC-3 [JPC-3] | 1.02 | 0.957 | 0.966 | 0.997 | 0.561 | 0.554 | 0.546 | 0.602 | 0.746 | 0.705 | 0.678 | 0.802 | 0.736 | 0.658 | 0.667 | 0.692 | 0.923 | 0.894 | 0.847 | 0.865
22 | PC-14 | 0.929 | 1.01 | 0.938 | 0.98 | 0.487 | 0.643 | 0.485 | 0.369 | 0.819 | 0.721 | 0.663 | 0.569 | 0.136 | 0.197 | 0.147 | 0.152 | 0.203 | 0.186 | 0.216 | 0.326
23 | RERF-LC-KJ | 0.895 | 0.882 | 0.878 | 0.793 | 0.993 | 1.08 | 1.13 | 1.02 | 0.844 | 0.818 | 0.867 | 0.749 | 1.29 | 1.49 | 1.14 | 1.17 | 0.716 | 0.759 | 0.737 | 0.845
24 | SK-LU-1 | 1.23 | 1.26 | 0.839 | 0.558 | 0.404 | 0.409 | 0.379 | 0.399 | 0.455 | 0.316 | 0.432 | 0.336 | 0.202 | 0.199 | 0.206 | 0.194 | 0.577 | 0.557 | 0.559 | 0.481
25 | SK-MES-1 | 1.13 | 1.17 | 1.07 | 1.06 | 0.326 | 0.359 | 0.27 | 0.246 | 0.563 | 0.4 | 0.539 | 0.279 | 0.785 | 0.804 | 0.733 | 0.336 | 0.384 | 0.368 | 0.454 | 0.355
26 | SW 1573 | 0.706 | 0.72 | 0.63 | 0.598 | 0.422 | 0.504 | 0.424 | 0.247 | 0.52 | 0.556 | 0.492 | 0.477 | 0.377 | 0.213 | 0.308 | 0.18 | 0.527 | 0.446 | 0.491 | 0.366
